# The supplement of paper PMC10307832
# Columns and labels:
# Assay in all cases: relative viability (nuclei count vs DMSO), 5 days (fraction); higher = more cells survive
# Wnt-C59 + Foretinib = compound: CC1=NC=CC(=C1)C2=CC=C(C=C2)CC(=O)NC3=CC=C(C=C3)C4=CN=CC=C4 [Wnt-C59] + COc1cc2c(Oc3ccc(NC(=O)C4(C(=O)Nc5ccc(F)cc5)CC4)cc3F)ccnc2cc1OCCCN1CCOCC1 [Foretinib] (partner 0.25 µM)
# How it was run: (§1)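 Relative viability was taken as the ratio of nuclei in treated wells to nuclei in vehicle wells. Lung cancer cell lines in 1536-well plates received compounds by pin tool one day after seeding, either one drug alone or a fixed anchor-drug dose plus five library-drug doses (not always all listed) in √10 steps. Nuclei were counted on 4× images after 5 days of treatment, and values are medians of duplicate plates.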
# Wnt-C59 + Vorinostat = compound: CC1=NC=CC(=C1)C2=CC=C(C=C2)CC(=O)NC3=CC=C(C=C3)C4=CN=CC=C4 [Wnt-C59] + O=C(CCCCCCC(=O)Nc1ccccc1)NO [Vorinostat] (partner 1 µM)
# How it was run: as §1
# Lapatinib + Alpelisib = compound: CS(=O)(=O)CCNCc1ccc(-c2ccc3ncnc(Nc4ccc(OCc5cccc(F)c5)c(Cl)c4)c3c2)o1 [Lapatinib] + Cc1nc(NC(=O)N2CCC[C@H]2C(N)=O)sc1-c1ccnc(C(C)(C)C(F)(F)F)c1 [Alpelisib] (partner 2 µM)
# How it was run: as §1
# Wnt-C59 + Crizotinib = compound: CC1=NC=CC(=C1)C2=CC=C(C=C2)CC(=O)NC3=CC=C(C=C3)C4=CN=CC=C4 [Wnt-C59] + C[C@@H](Oc1cc(-c2cnn(C3CCNCC3)c2)cnc1N)c1c(Cl)ccc(F)c1Cl [Crizotinib] (partner 1 µM)
# How it was run: as §1
cell line,measurement,setting,value
HCC-827,relative viability,Wnt-C59 + Foretinib; first compound 0.001 µM,1.08
same,relative viability,Wnt-C59 + Foretinib; first compound 0.01 µM,1
same,relative viability,Wnt-C59 + Foretinib; first compound 0.03162 µM,1.03
same,relative viability,Wnt-C59 + Foretinib; first compound 0.1 µM,1.04
same,relative viability,Wnt-C59 + Vorinostat; first compound 0.001 µM,0.901
same,relative viability,Wnt-C59 + Vorinostat; first compound 0.01 µM,0.922
same,relative viability,Wnt-C59 + Vorinostat; first compound 0.03162 µM,1.01
same,relative viability,Wnt-C59 + Vorinostat; first compound 0.1 µM,0.77
same,relative viability,Lapatinib + Alpelisib; first compound 0.02 µM,0.89
same,relative viability,Lapatinib + Alpelisib; first compound 0.06325 µM,0.957
same,relative viability,Lapatinib + Alpelisib; first compound 0.2 µM,0.957
same,relative viability,Lapatinib + Alpelisib; first compound 0.6325 µM,0.914
same,relative viability,Lapatinib + Alpelisib; first compound 2 µM,0.434
same,relative viability,Wnt-C59 + Crizotinib; first compound 0.001 µM,1.01
same,relative viability,Wnt-C59 + Crizotinib; first compound 0.01 µM,0.979
same,relative viability,Wnt-C59 + Crizotinib; first compound 0.03162 µM,0.942
same,relative viability,Wnt-C59 + Crizotinib; first compound 0.1 µM,0.975
HOP-62,relative viability,Wnt-C59 + Foretinib; first compound 0.001 µM,1.1
same,relative viability,Wnt-C59 + Foretinib; first compound 0.01 µM,1.06
same,relative viability,Wnt-C59 + Foretinib; first compound 0.03162 µM,1.07
same,relative viability,Wnt-C59 + Foretinib; first compound 0.1 µM,1.19
same,relative viability,Wnt-C59 + Vorinostat; first compound 0.001 µM,0.639
same,relative viability,Wnt-C59 + Vorinostat; first compound 0.01 µM,0.576
same,relative viability,Wnt-C59 + Vorinostat; first compound 0.03162 µM,0.508
same,relative viability,Wnt-C59 + Vorinostat; first compound 0.1 µM,0.637
same,relative viability,Lapatinib + Alpelisib; first compound 0.06325 µM,0.618
same,relative viability,Lapatinib + Alpelisib; first compound 0.2 µM,0.861
same,relative viability,Lapatinib + Alpelisib; first compound 0.6325 µM,1.14
same,relative viability,Lapatinib + Alpelisib; first compound 2 µM,0.856
same,relative viability,Wnt-C59 + Crizotinib; first compound 0.001 µM,0.973
same,relative viability,Wnt-C59 + Crizotinib; first compound 0.01 µM,0.916
same,relative viability,Wnt-C59 + Crizotinib; first compound 0.03162 µM,0.974
same,relative viability,Wnt-C59 + Crizotinib; first compound 0.1 µM,0.789
IA-LM,relative viability,Wnt-C59 + Foretinib; first compound 0.001 µM,1.23
same,relative viability,Wnt-C59 + Foretinib; first compound 0.01 µM,1.01
same,relative viability,Wnt-C59 + Foretinib; first compound 0.03162 µM,1.11
same,relative viability,Wnt-C59 + Foretinib; first compound 0.1 µM,1.03
same,relative viability,Wnt-C59 + Vorinostat; first compound 0.001 µM,0.934
same,relative viability,Wnt-C59 + Vorinostat; first compound 0.01 µM,0.906
same,relative viability,Wnt-C59 + Vorinostat; first compound 0.1 µM,0.939
same,relative viability,Lapatinib + Alpelisib; first compound 0.02 µM,0.653
same,relative viability,Lapatinib + Alpelisib; first compound 0.06325 µM,0.66
same,relative viability,Lapatinib + Alpelisib; first compound 0.2 µM,0.76
same,relative viability,Lapatinib + Alpelisib; first compound 0.6325 µM,0.763
same,relative viability,Lapatinib + Alpelisib; first compound 2 µM,0.792
same,relative viability,Wnt-C59 + Crizotinib; first compound 0.001 µM,0.919
same,relative viability,Wnt-C59 + Crizotinib; first compound 0.01 µM,0.746
same,relative viability,Wnt-C59 + Crizotinib; first compound 0.03162 µM,0.632
same,relative viability,Wnt-C59 + Crizotinib; first compound 0.1 µM,0.705
LC-2-ad,relative viability,Wnt-C59 + Foretinib; first compound 0.001 µM,0.936
same,relative viability,Wnt-C59 + Foretinib; first compound 0.01 µM,0.947
same,relative viability,Wnt-C59 + Foretinib; first compound 0.03162 µM,1.02
same,relative viability,Wnt-C59 + Foretinib; first compound 0.1 µM,0.947
same,relative viability,Wnt-C59 + Vorinostat; first compound 0.001 µM,0.699
same,relative viability,Wnt-C59 + Vorinostat; first compound 0.01 µM,0.714
same,relative viability,Wnt-C59 + Vorinostat; first compound 0.03162 µM,0.742
same,relative viability,Wnt-C59 + Vorinostat; first compound 0.1 µM,0.688
same,relative viability,Lapatinib + Alpelisib; first compound 0.06325 µM,0.796
same,relative viability,Lapatinib + Alpelisib; first compound 0.2 µM,0.856
same,relative viability,Lapatinib + Alpelisib; first compound 0.6325 µM,0.877
same,relative viability,Lapatinib + Alpelisib; first compound 2 µM,0.73
same,relative viability,Wnt-C59 + Crizotinib; first compound 0.001 µM,0.45
same,relative viability,Wnt-C59 + Crizotinib; first compound 0.01 µM,0.442
same,relative viability,Wnt-C59 + Crizotinib; first compound 0.03162 µM,0.553
same,relative viability,Wnt-C59 + Crizotinib; first compound 0.1 µM,0.279
LCLC-97TM1,relative viability,Wnt-C59 + Foretinib; first compound 0.001 µM,1.03
same,relative viability,Wnt-C59 + Foretinib; first compound 0.01 µM,0.949
same,relative viability,Wnt-C59 + Foretinib; first compound 0.03162 µM,1.03
same,relative viability,Wnt-C59 + Foretinib; first compound 0.1 µM,0.896
same,relative viability,Wnt-C59 + Vorinostat; first compound 0.001 µM,0.733
same,relative viability,Wnt-C59 + Vorinostat; first compound 0.01 µM,0.765
same,relative viability,Wnt-C59 + Vorinostat; first compound 0.03162 µM,0.901
same,relative viability,Wnt-C59 + Vorinostat; first compound 0.1 µM,0.706
same,relative viability,Lapatinib + Alpelisib; first compound 0.2 µM,0.232
same,relative viability,Lapatinib + Alpelisib; first compound 0.6325 µM,0.284
same,relative viability,Lapatinib + Alpelisib; first compound 2 µM,0.257
same,relative viability,Wnt-C59 + Crizotinib; first compound 0.001 µM,0.292
same,relative viability,Wnt-C59 + Crizotinib; first compound 0.01 µM,0.344
same,relative viability,Wnt-C59 + Crizotinib; first compound 0.03162 µM,0.545
same,relative viability,Wnt-C59 + Crizotinib; first compound 0.1 µM,0.283
LCLC-103H,relative viability,Wnt-C59 + Foretinib; first compound 0.001 µM,0.752
same,relative viability,Wnt-C59 + Foretinib; first compound 0.01 µM,0.891
same,relative viability,Wnt-C59 + Foretinib; first compound 0.03162 µM,0.889
same,relative viability,Wnt-C59 + Foretinib; first compound 0.1 µM,0.641
same,relative viability,Wnt-C59 + Vorinostat; first compound 0.001 µM,0.887
same,relative viability,Wnt-C59 + Vorinostat; first compound 0.01 µM,0.743
same,relative viability,Wnt-C59 + Vorinostat; first compound 0.03162 µM,0.762
same,relative viability,Wnt-C59 + Vorinostat; first compound 0.1 µM,0.806
same,relative viability,Lapatinib + Alpelisib; first compound 0.06325 µM,0.882
same,relative viability,Lapatinib + Alpelisib; first compound 0.2 µM,0.924
same,relative viability,Lapatinib + Alpelisib; first compound 0.6325 µM,0.848
same,relative viability,Lapatinib + Alpelisib; first compound 2 µM,0.92
same,relative viability,Wnt-C59 + Crizotinib; first compound 0.001 µM,1.08
same,relative viability,Wnt-C59 + Crizotinib; first compound 0.01 µM,0.977
same,relative viability,Wnt-C59 + Crizotinib; first compound 0.03162 µM,1
same,relative viability,Wnt-C59 + Crizotinib; first compound 0.1 µM,1.02
LK-2,relative viability,Wnt-C59 + Foretinib; first compound 0.001 µM,1.28
same,relative viability,Wnt-C59 + Foretinib; first compound 0.01 µM,1.02
same,relative viability,Wnt-C59 + Foretinib; first compound 0.03162 µM,1.46
same,relative viability,Wnt-C59 + Foretinib; first compound 0.1 µM,1.25
same,relative viability,Wnt-C59 + Vorinostat; first compound 0.001 µM,0.441
same,relative viability,Wnt-C59 + Vorinostat; first compound 0.01 µM,0.295
same,relative viability,Wnt-C59 + Vorinostat; first compound 0.03162 µM,0.3
same,relative viability,Wnt-C59 + Vorinostat; first compound 0.1 µM,0.233
same,relative viability,Lapatinib + Alpelisib; first compound 0.2 µM,0.938
same,relative viability,Lapatinib + Alpelisib; first compound 0.6325 µM,1.13
same,relative viability,Lapatinib + Alpelisib; first compound 2 µM,1.01
same,relative viability,Wnt-C59 + Crizotinib; first compound 0.001 µM,0.228
same,relative viability,Wnt-C59 + Crizotinib; first compound 0.01 µM,0.238
same,relative viability,Wnt-C59 + Crizotinib; first compound 0.03162 µM,0.212
same,relative viability,Wnt-C59 + Crizotinib; first compound 0.1 µM,0.259
LOU-NH91,relative viability,Wnt-C59 + Foretinib; first compound 0.001 µM,0.941
same,relative viability,Wnt-C59 + Foretinib; first compound 0.01 µM,0.764
same,relative viability,Wnt-C59 + Foretinib; first compound 0.03162 µM,0.988
same,relative viability,Wnt-C59 + Foretinib; first compound 0.1 µM,0.92
same,relative viability,Wnt-C59 + Vorinostat; first compound 0.001 µM,0.868
same,relative viability,Wnt-C59 + Vorinostat; first compound 0.01 µM,0.864
same,relative viability,Wnt-C59 + Vorinostat; first compound 0.03162 µM,0.886
same,relative viability,Wnt-C59 + Vorinostat; first compound 0.1 µM,0.978
same,relative viability,Lapatinib + Alpelisib; first compound 0.02 µM,0.661
same,relative viability,Lapatinib + Alpelisib; first compound 0.06325 µM,0.557
same,relative viability,Lapatinib + Alpelisib; first compound 0.2 µM,0.533
same,relative viability,Lapatinib + Alpelisib; first compound 0.6325 µM,0.508
same,relative viability,Lapatinib + Alpelisib; first compound 2 µM,0.472
same,relative viability,Wnt-C59 + Crizotinib; first compound 0.001 µM,0.732
same,relative viability,Wnt-C59 + Crizotinib; first compound 0.01 µM,0.65
same,relative viability,Wnt-C59 + Crizotinib; first compound 0.03162 µM,0.738
same,relative viability,Wnt-C59 + Crizotinib; first compound 0.1 µM,0.766
LU99A,relative viability,Wnt-C59 + Foretinib; first compound 0.001 µM,0.845
same,relative viability,Wnt-C59 + Foretinib; first compound 0.01 µM,0.853
same,relative viability,Wnt-C59 + Foretinib; first compound 0.03162 µM,0.963
same,relative viability,Wnt-C59 + Foretinib; first compound 0.1 µM,0.831
same,relative viability,Wnt-C59 + Vorinostat; first compound 0.001 µM,0.486
same,relative viability,Wnt-C59 + Vorinostat; first compound 0.01 µM,0.474
same,relative viability,Wnt-C59 + Vorinostat; first compound 0.03162 µM,0.484
same,relative viability,Wnt-C59 + Vorinostat; first compound 0.1 µM,0.442
same,relative viability,Lapatinib + Alpelisib; first compound 0.02 µM,0.564
same,relative viability,Lapatinib + Alpelisib; first compound 0.06325 µM,0.476
same,relative viability,Lapatinib + Alpelisib; first compound 0.2 µM,0.527
same,relative viability,Lapatinib + Alpelisib; first compound 0.6325 µM,0.524
same,relative viability,Lapatinib + Alpelisib; first compound 2 µM,0.54
same,relative viability,Wnt-C59 + Crizotinib; first compound 0.001 µM,0.577
same,relative viability,Wnt-C59 + Crizotinib; first compound 0.01 µM,0.538
same,relative viability,Wnt-C59 + Crizotinib; first compound 0.03162 µM,0.622
same,relative viability,Wnt-C59 + Crizotinib; first compound 0.1 µM,0.531
LXF-289,relative viability,Wnt-C59 + Foretinib; first compound 0.001 µM,0.991
same,relative viability,Wnt-C59 + Foretinib; first compound 0.01 µM,0.98
same,relative viability,Wnt-C59 + Foretinib; first compound 0.03162 µM,1.01
same,relative viability,Wnt-C59 + Foretinib; first compound 0.1 µM,0.979
same,relative viability,Wnt-C59 + Vorinostat; first compound 0.001 µM,0.72
same,relative viability,Wnt-C59 + Vorinostat; first compound 0.01 µM,0.766
same,relative viability,Wnt-C59 + Vorinostat; first compound 0.03162 µM,0.783
same,relative viability,Wnt-C59 + Vorinostat; first compound 0.1 µM,0.801
same,relative viability,Lapatinib + Alpelisib; first compound 0.02 µM,0.987
same,relative viability,Lapatinib + Alpelisib; first compound 0.06325 µM,1.04
same,relative viability,Lapatinib + Alpelisib; first compound 0.2 µM,1.06
same,relative viability,Lapatinib + Alpelisib; first compound 0.6325 µM,0.987
same,relative viability,Lapatinib + Alpelisib; first compound 2 µM,0.922
same,relative viability,Wnt-C59 + Crizotinib; first compound 0.001 µM,0.822
same,relative viability,Wnt-C59 + Crizotinib; first compound 0.01 µM,0.768
same,relative viability,Wnt-C59 + Crizotinib; first compound 0.03162 µM,0.817
same,relative viability,Wnt-C59 + Crizotinib; first compound 0.1 µM,0.78
